Results: patent publication US20040248915A1 (priority 2003, published 2004)
pIC50: −log10 of the molar value. Several values for one entry are separate records, joined by “and”; a condition that tells them apart may be missing. Equal values may be shown once. Read-outs that look alike come from different tables or passages of the source.

Key:
[1] = bolus administration
[2] = test system: relapsed acute myeloid leukemia (AML); conditions: in vivo
advanced solid tumors = experiment: Phase I continuous infusion in advanced solid tumors: toxicity; format: in vivo, human
Experimental: This is a dose and infusion length finding study to achieve a minimum steady-state plasma concentration of 21 ng/mL (0.1 μM) for 72-120 hr. The starting dose of 3 mg/m^2/d was determined from PK simulation modeling using data obtained from Phase I studies (30-minute infusions). The starting infusion duration was 48 hr with escalation to 72 hr, 96 hr and 120 hr in cohorts of 3-6 patients.
In the results evaluated to date, 12 adults with refractory solid tumors have been treated. The first cohort (4 patients) received drug for 48 h (total dose 6 mg/m^2) with no DLT. The second cohort of patients was treated for 72 hr (total 9 mg/m^2). […] The 2 patients with DLT had the highest plasma concentrations. Enrollment is ongoing at 2.25 mg/m^2/d for 96 h (total 9 mg/m^2).

[3] = mice, bolus i.v. 20 mg/kg, cited from earlier work
[4] = test system: relapsed acute myeloid leukemia (AML); experiment: Phase I continuous infusion in relapsed AML: toxicity and antileukemic activity
[5] = design: species or system mice; conditions: athymic CD-1 (nu/nu) nude, mouse, in vivo
Experimental: Blood was centrifuged at 10,000 g for 10 minutes and plasma was collected and frozen at −20° C. until further analysis. An aliquot of mouse plasma (100 μl) was precipitated with 300 μl of acetonitrile containing 3TC® (Shire BioChem) as internal standard. After centrifugation at 3,000 ×g for 5 minutes, 300 μl of supernatant was collected and evaporated to dryness under a gentle stream of nitrogen. The residue was then reconstituted with 100 μl of deionized water. […] The chromatography was achieved on a Luna C18 column (150×2 mm, 5 μm, Phenomenix, Torrance, Calif.) with a flow rate of 0.25 ml/min. The aqueous mobile phase, consisting of 10 mM ammonium acetate buffer, pH6.8, was held for 5 minutes and followed by a linear gradient of 0-50% acetonitrile over 8 minutes. Sample analysis was performed on a LC/MS/MS (TSQ7000, Thermo Finnigan, San Jose, Calif.) equipped with electrospray source.

[6] = test system: HT-29 human colorectal cancer cells grown as xenografts in nude mice; experiment: Antitumor efficacy studies in human xenografts; format: in vivo; conditions: for day from which tumor regressions were observed: 6-day infusion; for inhibition of tumor growth: 53-63 mg/kg
Experimental: Antitumor efficacy studies: In vivo efficacy studies were conducted using the HT-29 human colorectal cancer cells grown as xenografts in nude mice. Female athymic CD-1(nu/nu) mice were injected s.c. with 2×10^6 human colon HT-29 tumor cells. Tumor bearing animals were randomised (10 to 15 per group) and treatment started when tumor volumes reached 80 to 120 mm^3 (days 6 to 9; depending on the study). Tumor measurements, taken by callipers twice weekly, were converted to tumor volumes (in mm^3) using the standard formula, [width (mm)]^2×length (mm)×0.52. […] The pumps were implanted s.c. under sterile conditions at the site opposite to the tumor. These pumps (internal volume, 200 μl) continuously deliver test agent at a rate of 1 μl/h for 200 h (8.3 days total). Pumps were removed after 1, 3, 5 or 6 days, thus insuring continuous delivery of test agent over the course of the experiment. […] Compound efficacy was assessed at the end of the study by percentage of T/C defined as the mean treated tumor volume/mean control tumor volume×100%, with a T/C of about 40% or less being indicative of antitumor activity (J. Plowman et al., Human tumor xenograft models in NCI drug development in Teicher BA (ed) “Anticancer Drug Development Guide: Preclinical screening, clinical trials, and approval”. Humana Press Inc., Totowa, N.J. 1997;101-125). To monitor the drug-associated toxicity, mice were weighed at least twice a week and daily inspected for observable clinical signs. Statistical analysis was performed by ANOVA (ANalysis Of VAriance) or by Student's t test. Differences were considered to be significant at P<0.05.
Once we had established the optimum dose range (activity and well tolerated toxicity), a second study was performed to establish the time necessary to obtain optimum antitumor efficacy. This study was performed using 5, 10 and 20 mg/ml infused over 1, 3 and 5 days, when the tumors had reached 85 mm^3 (day 6).
Bolus administration was given by intravenous injection in the tail vein (10 ml/kg).

nucleoside transporters = conditions: membrane permeation not mediated by nucleoside transporters; cited from earlier work
[7] = human, in vivo
in vivo [8] = conditions: nude, mouse, 10.6 mg/kg
cytidine deaminase (CDA) = cytidine deaminase (CDA) (Homo sapiens, UniProt P32320); conditions: cited from earlier work
cytidine deaminase (CDA), sequence (P32320 whole entry, species assumed): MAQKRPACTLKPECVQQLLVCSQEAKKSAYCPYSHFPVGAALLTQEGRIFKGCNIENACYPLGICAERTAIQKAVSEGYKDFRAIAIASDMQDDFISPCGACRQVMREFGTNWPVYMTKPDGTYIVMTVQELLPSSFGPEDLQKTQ

[9] = cited from earlier work; for recommended doses: DLT neutropenia and skin rash
[10] = rats, 10 mg/kg injection; cited from earlier work
[11] = test system: HT-29 human colorectal carcinoma cell line; experiment: Clonogenic assay; format: cell-based; conditions: HT-29 clonal growth; for pIC50: Homo sapiens
Experimental: Two different methods were used, the MTT colometric assay and the clonogenic assay. b)Clonogenic assay: HT-29 cells were plated on 6-well flat-bottomed plates (200-400 cells) and allowed to attach overnight. […] After the incubation period with the drug, cells were washed and fresh drug-free medium added. On day 10, cells were exposed to Crystal violet stain.

in vivo [12] = conditions: female, mouse
Experimental: Antitumor efficacy studies: In vivo efficacy studies were conducted using the HT-29 human colorectal cancer cells grown as xenografts in nude mice. Female athymic CD-1(nu/nu) mice were injected s.c. with 2×10^6 human colon HT-29 tumor cells. Tumor bearing animals were randomised (10 to 15 per group) and treatment started when tumor volumes reached 80 to 120 mm^3 (days 6 to 9; depending on the study). Tumor measurements, taken by callipers twice weekly, were converted to tumor volumes (in mm^3) using the standard formula, [width (mm)]^2×length (mm)×0.52. […] The pumps were implanted s.c. under sterile conditions at the site opposite to the tumor. These pumps (internal volume, 200 μl) continuously deliver test agent at a rate of 1 μl/h for 200 h (8.3 days total). Pumps were removed after 1, 3, 5 or 6 days, thus insuring continuous delivery of test agent over the course of the experiment. […] To monitor the drug-associated toxicity, mice were weighed at least twice a week and daily inspected for observable clinical signs. Statistical analysis was performed by ANOVA (ANalysis Of VAriance) or by Student's t test. Differences were considered to be significant at P<0.05.

[13] = test system: HT-29 human colorectal carcinoma cell line; experiment: MTT colometric assay; format: cell-based; conditions: for GI50: Homo sapiens
Experimental: Two different methods were used, the MTT colometric assay and the clonogenic assay. a)MTT colometric assay: HT-29 cells were plated at 2.5×10^3 cells/well in a 96-well tissue culture plate and allowed to attach overnight. […] After the incubation period with the drug, cells were washed and fresh drug-free medium added. On day 3, cellular proliferation was evaluated by the tetrazolium dye assay.

With `Nc1ccn([C@@H]2CO[C@H](CO)O2)c(=O)n1` [troxacitabine, (−)-β-L-Dioxolane-Cytidine] the “tolerated drug systemic concentrations, mice compared with humans” value [1] was “over 20 fold”, the “tolerated exposures, mice compared with humans” value [1] was “over 6 fold” and the body weight loss (50 mg/ml, 3-5 days following initiation of treatment) was no more than 20%. For the same molecule, the “maximum tolerated dose (MTD)” value (pump concentration, continuous infusion 6 days, nude mice) was 50 mg/mL, the hand-foot syndrome ([2]; human) was “Grade 1 and 2 hand-foot syndrome was also observed at all dose levels” and the “dose-limiting Grade 3 stomatitis, patients” value ([2]; human, 6 days) was 2 of 4. For the same molecule, the “dose-limiting stomatitis, patients” value [2] was “Two of the four”, the skin rash [2] was “generalized mild to moderate skin rash was observed at all dose levels” and the main non-hematological toxicities (advanced solid tumors; solid tumor patients, continuous infusion) was “mild to moderate skin rash”. The DLT (advanced solid tumors; solid tumors, 2 mg/m^2/d over 3 days (total 6 mg/m^2), three patients) was “no DLTs observed”, the DLT (advanced solid tumors; solid tumors, 3 mg/m^2/d for 48 h (total 6 mg/m^2), 4 patients) was “no DLT” and the “DLT's, patients” value (advanced solid tumors; solid tumors, 3 mg/m^2/d for 72 hr (total 9 mg/m^2), Grade 4 neutropenia, fever, Grade 3 thrombocytopenia) was 2 of the 5. The Cmax ([3]; at 2 minutes, read-out: plasma Cmax) was no less than 100 µM, the “elimination t1/2” value [3] was 0.267 h and the “plasma drug concentration by 60 minutes” value [3] was 4.5 µM. For the same molecule, the “bone marrow aplasia, patients” value ([4]; AML patients who received 40.4-60.6 mg/m^2) was 10 of 17, the “higher cumulative doses achieved than by bolus administration” value ([4]; AML patients, continuous infusion) was 25% and the recommended dose ([4]; AML patients, continuous infusion administered over five days) was 50.5 mg/m^2. For the same molecule, the bone marrow hypoplasia/aplasia ([4]; first 7 AML patients, cumulative doses ≦30.3 mg/m^2) was “not seen”, the “patients who achieved remissions” value ([4]; first 24 AML patients treated) was 4 patients and the “peak plasma concentrations with prolonged infusion” value [5] was 0.7 to 1.6 µM. The T/C ([6]; 0.5 mg/ml pump, continuous infusion 6 days, day 31) was 79%, the T/C ([6]; 5 mg/ml pump, continuous infusion 6 days, day 31) was 42% and the “antitumor activity of infusion compared with daily bolus” value ([6]; 10 mg/ml infusion over 6 days vs 10.6 mg/kg daily for 5 consecutive days) was “same antitumor activity”. The T/C ([6]; 10 mg/ml pump, continuous infusion 6 days, day 31) was 22%, the “day from which tumor regressions were observed” value ([6]; 10 mg/ml) was 29 days and the tumor course ([6]; 20 mg/ml infused over 3 days) was “tumor stasis during the first week after treatment followed by tumor regrowth”. For the same molecule, the T/C ([6]; 20 mg/ml infused over 3 days, end of study) was 44%, the tumor regressions ([6]; 20 mg/ml, 5-day infusion) was “Tumor regressions were observed from day 18 till day 28 followed by regrowth” and the T/C ([6]; 20 mg/ml, 5-day infusion, end of study) was 27%. For the same molecule, the T/C ([6]; 50 mg/ml pump, continuous infusion 6 days, day 31) was 11%, the “day from which tumor regressions were observed” value ([6]; 50 mg/ml) was 21 days and the “inhibition of tumor growth” value ([6]; 3-day administration regimens (q7d×3 or 3-day infusions)) was “intermediate”. For the same molecule, the “inhibition of tumor growth” value ([6]; 5-6 day regimens (q1d×5 or 6-day infusions)) was “optimal”, the “effect on tumor growth” value ([6]; one day infusion (24 h), 5, 10 and 20 mg/ml) was “no effect” and the antitumor activity ([6]; single bolus i.v. injection 63 mg/kg) was “low activity”. For the same molecule, the “major route of cellular uptake” value (nucleoside transporters) was “passive diffusion”, the “drug exposure above or equal to 0.4 μM” value [7] was 120 h and the “interpatient variation in observed concentrations at each protocol time-point” value [7] was 2-to 3 fold. The AUC at 5 days (in vivo [8]) was 18800 ng·h/mL, the “deamination by cytidine deaminase (CDA)” value (cytidine deaminase (CDA)) was “resistant to deamination” and the “drug exposure above or equal to 0.4 μM” value ([9]; bolus administration) was 19.3 h. The Cmax plasmatic ([9]; humans, 1.5 and 1.2 mg/m^2/d, first day) was 110 to 140 ng/mL, the “time to steady state plasma concentration” value ([9]; humans, 5 half-lives (5×12 hrs)) was 60 h and the recommended doses ([9]; humans, 30-minute infusion every 21 days) was 12.5 mg/m^2 and 10 mg/m^2. The recommended doses ([9]; humans, 30-minute infusion on 5 consecutive days every 4 weeks) was 1.5 mg/m^2/d and 1.2 mg/m^2/d, the “plasma concentrations 5 minutes after drug administration” value ([9]; humans, administered clinical bolus doses) was 0.6 to 4 µM and the “drug concentration less than 30 minutes after the end of infusion” value ([9]; humans, i.v. 10 mg/m^2) was “less than 1 μM”. For the same molecule, the “elimination t1/2” value ([9]; humans, i.v. 10 mg/m^2) was 13 h, the “time drug concentration remained above 0.1 μM” value ([9]; humans, i.v. 10 mg/m^2) was “approximately 12 hours” and the “maximum tolerated dose in humans” value ([9]; i.v. administration) was 10 mg/m^2. For the same molecule, the Cmax ([9]; read-out: Cmax plasmatic, humans, 1.5 and 1.2 mg/m^2/d, first day) was 0.52 to 0.66 µM, the Cmax ([9]; read-out: plasma Cmax, humans, i.v. 10 mg/m^2) was 4.1 µM and the Cmax [10] was no less than 100 µM. For the same molecule, the “change in potency when incubation time increased from 72 hr to 144 hr” value [11] was “No further increase in potency”, the “difference between IC50 values following 24- and 72 hr exposures” value [11] was 5 fold and the pIC50 ([11]; 24 hr exposure) was 5.66. For the same molecule, the pIC50 ([11]; 72 hr exposure) was 6.40, the MTD at 6 days (in vivo [12]) was 45 to 50 mg/kg/day and the “potency of 72-hour versus 1 hr exposure” value ([13]; HT-29, MTT) was 265 fold. It also gave a GI50 ([13]; HT-29, 24 h, HT-29, 24 hr drug exposure) of 5 µM, a GI50 ([13]; HT-29, 72 h, HT-29, 72 hr drug exposure) of 1 µM and a GI50 ([13]; HT-29, HT-29, 1 hr drug exposure, read on day 3) of 265 µM. It also gave a GI50 ([13]; HT-29, HT-29, 4 hr drug exposure, read on day 3) of 46 µM.
